{"source": "paper PMC10363032", "about": "(Cancer Chemotherapy and Pharmacology, 2023)", "key": {"CYP3A": {"system": "CYP3A", "conditions": "read-out: IC50, reversible inhibition of CYP3A; ref AstraZeneca, data on file, 2020; 16; cited from earlier work"}, "Wee1": {"system": "Wee1", "set-up": "method as in PMID 25964244, PMID 19887545", "conditions": "read-out: half-maximal inhibitory concentration (IC50); cited from earlier work"}, "[1]": {"conditions": "human, in vivo", "procedure": "(§1) Safety was appraised throughout the study by the assessment of clinical and laboratory adverse events (AEs; graded by Common Terminology Criteria for Adverse Events [CTCAE], version 4.03), physical examination, and evaluation of vital signs and laboratory data (clinical chemistry and hematology).\n(§2) Patients were evaluated according to the treatment received."}, "clinical": {"test": "clinical", "conditions": "human, in vivo, 225 mg", "experimental": "PK parameters were derived using non-compartmental methods with Phoenix® WinNonlin® version 6.4 (Certara, LP, Princeton, NJ, USA). All descriptive and inferential statistical computations were performed using SAS® version 9.1 (SAS Institute, Cary, NC, USA)."}, "[2]": {"test": "safety and tolerability, adverse events (CTCAE version 4.03) in patients", "procedure": "as §1, §2"}, "[3]": {"conditions": "Adavosertib n = 30, Adavosertib + cocktail n = 26"}}, "data": [{"smiles": "C=CCn1c(=O)c2cnc(Nc3ccc(N4CCN(C)CC4)cc3)nc2n1-c1cccc(C(C)(C)O)n1", "note": "[adavosertib]", "values": [{"measurement": "IC50", "setting": "CYP3A", "value": 14, "unit": "µM"}, {"measurement": "IC50", "setting": "Wee1", "value": 0.0052, "unit": "µM"}, {"measurement": "AEs with an outcome of death", "setting": "[1]", "value": "No AEs with an outcome of death were observed"}, {"measurement": "CLss/F, arithmetic mean (SD)", "setting": "clinical", "value": "38.0 (12.11) L/h"}, {"measurement": "CLss/F, median (minimum, maximum)", "setting": "clinical", "value": "36.9 (24.3, 63.5) L/h"}, {"measurement": "Tmax", "setting": "clinical", "value": 3, "unit": "h"}, {"measurement": "intra-patient variability for AUC0–12 and Cmax", "setting": "clinical", "value": "< 10", "unit": "%"}, {"measurement": "AUC(0-t)", "setting": "clinical; AUC0–12, arithmetic mean (SD)", "value": 12.7, "unit": "µM·h"}, {"measurement": "AUC(0-t)", "setting": "clinical; AUC0–12, geometric mean", "value": 12.2, "unit": "µM·h"}, {"measurement": "AUC(0-t)", "setting": "clinical; AUC0–12, median (minimum, maximum)", "value": 12, "unit": "µM·h"}, {"measurement": "Cmax", "setting": "clinical; arithmetic mean (SD)", "value": 1490, "unit": "nM"}, {"measurement": "Cmax", "setting": "clinical; geometric mean", "value": 1440, "unit": "nM"}, {"measurement": "Cmax", "setting": "clinical; median (minimum, maximum)", "value": 1420, "unit": "nM"}, {"measurement": "Acute kidney injury (causally related), any grade", "setting": "[2]; [3]", "value": "1 (3.3) Number of patients (%)"}, {"measurement": "Acute kidney injury (causally related), grade ≥3", "setting": "[2]; [3]", "value": "1 ( 3. 3) Number of patients (%)"}, {"measurement": "Anemia (causally related), any grade", "setting": "[2]; [3]", "value": "0 Number of patients (%)"}, {"measurement": "Anemia (causally related), grade ≥3", "setting": "[2]; [3]", "value": "0 Number of patients (%)"}, {"measurement": "Any AE (causally related), any grade", "setting": "[2]; [3]", "value": "11 (36.7) Number of patients (%)"}, {"measurement": "Any AE (causally related), grade ≥3", "setting": "[2]; [3]", "value": "4 (13.3) Number of patients (%)"}, {"measurement": "Blood and lymphatic system disorders (causally related), any grade", "setting": "[2]; [3]", "value": "2 ( 6. 7) Number of patients (%)"}, {"measurement": "Blood and lymphatic system disorders (causally related), grade ≥3", "setting": "[2]; [3]", "value": "1 (3.3) Number of patients (%)"}, {"measurement": "Blood creatinine increased (causally related), any grade", "setting": "[2]; [3]", "value": "0 Number of patients (%)"}, {"measurement": "Blood creatinine increased (causally related), grade ≥3", "setting": "[2]; [3]", "value": "0 Number of patients (%)"}, {"measurement": "Decreased appetite (causally related), any grade", "setting": "[2]; [3]", "value": "0 Number of patients (%)"}, {"measurement": "Decreased appetite (causally related), grade ≥3", "setting": "[2]; [3]", "value": "0 Number of patients (%)"}, {"measurement": "Dehydration (causally related), any grade", "setting": "[2]; [3]", "value": "1 (3.3) Number of patients (%)"}, {"measurement": "Dehydration (causally related), grade ≥3", "setting": "[2]; [3]", "value": "1 (3.3) Number of patients (%)"}, {"measurement": "Diarrhea (causally related), any grade", "setting": "[2]; [3]", "value": "10 (33.3) Number of patients (%)"}, {"measurement": "Diarrhea (causally related), grade ≥3", "setting": "[2]; [3]", "value": "3 (10.0) Number of patients (%)"}, {"measurement": "Dizziness (causally related), any grade", "setting": "[2]; [3]", "value": "0 Number of patients (%)"}, {"measurement": "Dizziness (causally related), grade ≥3", "setting": "[2]; [3]", "value": "0 Number of patients (%)"}, {"measurement": "Fatigue (causally related), any grade", "setting": "[2]; [3]", "value": "0 Number of patients (%)"}, {"measurement": "Fatigue (causally related), grade ≥3", "setting": "[2]; [3]", "value": "0 Number of patients (%)"}, {"measurement": "Flushing (causally related), any grade", "setting": "[2]; [3]", "value": "0 Number of patients (%)"}, {"measurement": "Flushing (causally related), grade ≥3", "setting": "[2]; [3]", "value": "0 Number of patients (%)"}, {"measurement": "Gastrointestinal disorders (causally related), any grade", "setting": "[2]; [3]", "value": "11 (36.7) Number of patients (%)"}, {"measurement": "Gastrointestinal disorders (causally related), grade ≥3", "setting": "[2]; [3]", "value": "3 (10.0) Number of patients (%)"}, {"measurement": "General disorders and administration site conditions (causally related), any grade", "setting": "[2]; [3]", "value": "0 Number of patients (%)"}, {"measurement": "General disorders and administration site conditions (causally related), grade ≥3", "setting": "[2]; [3]", "value": "0 Number of patients (%)"}, {"measurement": "Hypokalemia (causally related), any grade", "setting": "[2]; [3]", "value": "1 (3.3) Number of patients (%)"}, {"measurement": "Hypokalemia (causally related), grade ≥3", "setting": "[2]; [3]", "value": "1 (3.3) Number of patients (%)"}, {"measurement": "Investigations (causally related), any grade", "setting": "[2]; [3]", "value": "2 (6.7) Number of patients (%)"}, {"measurement": "Investigations (causally related), grade ≥3", "setting": "[2]; [3]", "value": "0 Number of patients (%)"}, {"measurement": "Metabolism and nutrition disorders (causally related), any grade", "setting": "[2]; [3]", "value": "2 (6.7) Number of patients (%)"}, {"measurement": "Metabolism and nutrition disorders (causally related), grade ≥3", "setting": "[2]; [3]", "value": "2 ( 6. 7) Number of patients (%)"}, {"measurement": "Muscle spasms (causally related), any grade", "setting": "[2]; [3]", "value": "0 Number of patients (%)"}, {"measurement": "Muscle spasms (causally related), grade ≥3", "setting": "[2]; [3]", "value": "0 Number of patients (%)"}, {"measurement": "Musculoskeletal and connective tissue disorders (causally related), any grade", "setting": "[2]; [3]", "value": "0 Number of patients (%)"}, {"measurement": "Musculoskeletal and connective tissue disorders (causally related), grade ≥3", "setting": "[2]; [3]", "value": "0 Number of patients (%)"}, {"measurement": "Nasal ulcer (causally related), any grade", "setting": "[2]; [3]", "value": "0 Number of patients (%)"}, {"measurement": "Nasal ulcer (causally related), grade ≥3", "setting": "[2]; [3]", "value": "0 Number of patients (%)"}, {"measurement": "Nausea (causally related), any grade", "setting": "[2]; [3]", "value": "3 (10.0) Number of patients (%)"}, {"measurement": "Nausea (causally related), grade ≥3", "setting": "[2]; [3]", "value": "1 (3.3) Number of patients (%)"}, {"measurement": "Nervous system disorders (causally related), any grade", "setting": "[2]; [3]", "value": "0 Number of patients (%)"}, {"measurement": "Nervous system disorders (causally related), grade ≥3", "setting": "[2]; [3]", "value": "0 Number of patients (%)"}, {"measurement": "Neutropenia (causally related), any grade", "setting": "[2]; [3]", "value": "1 (3.3) Number of patients (%)"}, {"measurement": "Neutropenia (causally related), grade ≥3", "setting": "[2]; [3]", "value": "1 (3.3) Number of patients (%)"}, {"measurement": "Pancreatitis (causally related), any grade", "setting": "[2]; [3]", "value": "1 (3.3) Number of patients (%)"}, {"measurement": "Pancreatitis (causally related), grade ≥3", "setting": "[2]; [3]", "value": "1 (3.3) Number of patients (%)"}, {"measurement": "Renal and urinary disorders (causally related), any grade", "setting": "[2]; [3]", "value": "1 (3.3) Number of patients (%)"}, {"measurement": "Renal and urinary disorders (causally related), grade ≥3", "setting": "[2]; [3]", "value": "1 (3.3) Number of patients (%)"}, {"measurement": "Respiratory, thoracic and mediastinal disorders (causally related), any grade", "setting": "[2]; [3]", "value": "0 Number of patients (%)"}, {"measurement": "Respiratory, thoracic and mediastinal disorders (causally related), grade ≥3", "setting": "[2]; [3]", "value": "0 Number of patients (%)"}, {"measurement": "Stomatitis (causally related), any grade", "setting": "[2]; [3]", "value": "0 Number of patients (%)"}, {"measurement": "Stomatitis (causally related), grade ≥3", "setting": "[2]; [3]", "value": "0 Number of patients (%)"}, {"measurement": "Thrombocytopenia (causally related), any grade", "setting": "[2]; [3]", "value": "1 (3.3) Number of patients (%)"}, {"measurement": "Thrombocytopenia (causally related), grade ≥3", "setting": "[2]; [3]", "value": "0 Number of patients (%)"}, {"measurement": "Vascular disorders (causally related), any grade", "setting": "[2]; [3]", "value": "0 Number of patients (%)"}, {"measurement": "Vascular disorders (causally related), grade ≥3", "setting": "[2]; [3]", "value": "0 Number of patients (%)"}, {"measurement": "Vomiting (causally related), any grade", "setting": "[2]; [3]", "value": "6 (20.0) Number of patients (%)"}, {"measurement": "Vomiting (causally related), grade ≥3", "setting": "[2]; [3]", "value": "1 (3.3) Number of patients (%)"}, {"measurement": "Weight decreased (causally related), any grade", "setting": "[2]; [3]", "value": "2 (6.7) Number of patients (%)"}, {"measurement": "Weight decreased (causally related), grade ≥3", "setting": "[2]; [3]", "value": "0 Number of patients (%)"}, {"measurement": "Acute kidney injury (causally related), any grade", "setting": "[2]; Total (n = 30)", "value": "1 (3.3) Number of patients (%)"}, {"measurement": "Acute kidney injury (causally related), grade ≥3", "setting": "[2]; Total (n = 30)", "value": "1 (3.3) Number of patients (%)"}, {"measurement": "Anemia (causally related), any grade", "setting": "[2]; Total (n = 30)", "value": "1 (3.3) Number of patients (%)"}, {"measurement": "Anemia (causally related), grade ≥3", "setting": "[2]; Total (n = 30)", "value": "1 (3.3) Number of patients (%)"}]}]}
